Data on three compounds can be found in patent US10570168B2, “2′ and/or 5′ amino-acid ester phosphoramidate 3′-deoxy adenosine derivatives as anti- cancer compounds” (NuCana plc, priority 2014, dated 2020).

The term IC50 denotes the concentration needed to halve the response being measured.

The test system of experiment [1] is K562. Put plainly: Solid tumour and haematological malignancy assay (CellTiterGlo). It is filed as cell-based. To be noted: Homo sapiens, K562, 72 h. The procedure:
(§1) In vitro viability assay were performed to assess the effects of compounds on cell viability in selected cell lines over 72 hr using the CellTiterGlo (CTG, Promega-G7573) assay. […] Cell viability assay using CellTiterGlo in 96-well plate were performed. Compound treatment 72 hrs, standard growth conditions, duplicates. Compounds were dissolved to 40 mM with thawed 100%. […] After compounds were dissolved in media, media containing compounds were warmed to 37° C. in incubator and then compounds in media were added to cell plates ([…]) in duplicates. […] All compound solubilities were checked and recorded again, then the plates were transferred to CO2 tissue culture incubator immediately and incubated for 3 days. DMSO final concentration is 0.5%.
On the technique in general: In ATP-based viability assays light output follows the ATP content of the culture.

In another experiment the test system is MCF7. The experiment is described as above. It is filed as cell-based. The note with it: Homo sapiens, MCF7, 72 h. The protocol:
as §1

The test system of experiment [2] is HepG2. The experiment is described as above. It is filed as cell-based. To be noted: Homo sapiens, HepG2, 72 h. The procedure:
as §1

The test system of experiment [3] is HL-60. The description is as above. To be noted: Homo sapiens, HL-60, 72 h. It is filed as cell-based. The protocol: as §1
Another experiment relates to MiaPaCa-2. The experiment is described as above. To be noted: Homo sapiens, MIA PaCa-2, 72 h. It is filed as cell-based. The protocol:
as §1

The subject of the next experiment is HT29. The description is as above. It is filed as cell-based. The note with it: Homo sapiens, HT-29, 72 h. The protocol:
as §1

In experiment [4] the test system is KG-1. Described as above. It is filed as cell-based. To be noted: Homo sapiens, KG-1, 72 h. The protocol: as §1
The test system of a further experiment is CCRFCEM. Described as above. It is filed as cell-based. To be noted: Homo sapiens, CCRF-CEM, 72 h. The protocol:
as §1

The subject of a further experiment is HEL92.1.7. The experiment is described as above. The note with it: Homo sapiens, HEL 92.1.7, 72 h. It is filed as cell-based. The procedure: as §1
Experiment [5] relates to leukaemic stem cell (LSC) compartment within the KG1a cell line. As to the kind of experiment: Immunophenotypic identification of the leukaemic stem cell compartment. The note with it: 72 h, for compound A at 1 mM and above. It is filed as cell-based. The procedure:
KG1a cells were cultured for 72 h in the presence of a wide range of concentrations of each compound assayed. Cells were then harvested and labelled with a cocktail of anti-lineage antibodies (PE-cy7), anti-CD34 (FITC), anti-CD38 (PE) and anti-CD123 (PERCP cy5). The sub-population expressing a LSC phenotype were subsequently identified and were expressed as a percentage of all viable cells left in the culture. The percentages of stem cells remaining were then plotted on a dose-response graph and the effects of the compounds were compared with each other, and with the parent nucleoside.
The data obtained in these experiments were evaluated using one way ANOVA. All data was confirmed as Gaussian or a Gaussian approximation using the omnibus K2 test. LD50 values were calculated from the non-linear regression and line of best-fit analysis of the sigmoidal dose-response curves. All statistical analyses were performed using Graphpad Prism 6.0 software (Graphpad Software Inc., San Diego, Calif.).

Experiment [6] relates to K562. Put plainly: CellTiterGlo viability assay, initial screening. It is filed as cell-based. To be noted: Homo sapiens, K562, 72 h, read-out: IC50 (relative IC50). The procedure:
(§2) In vitro viability assays were performed to assess the effects of compounds on cell viability in 7 selected cell lines over 72 hr using the CellTiterGlo (CTG, Promega-G7573) assay. The tests were performed in duplicates with treatment of compounds at 9 points, 3.16 folds titration in 96 well plates over ˜72 hr. The compound starting concentrations were […]. Cell viability assay using CellTiterGlo in 96-well plate were performed. The compound treatment was 72 hrs, under standard growth conditions, and in duplicate. Compounds were dissolved to 40 mM with thawed […]. Compounds were serially diluted at 3.16 fold in thawed DMSO, and warmed to 37° C. before being dissolved in media (2 μl+200 μl). After compounds were dissolved in media (media was also warmed to 37° C.). Media containing compounds were warmed to 37° C. in incubator and then compounds in media were added to cell plates (50 μl+50 μl), in duplicates. The compounds final concentrations were from […] to 19.9 nM. All compound solubilities were checked and recorded again, then the plates were transferred to CO2 tissue culture incubator immediately and incubated for 3 days. DMSO final concentration is 0.5%.

Experiment [7] concerns HepG2. As to the kind of experiment: CellTiterGlo viability assay, initial screening. It is filed as cell-based. To be noted: Homo sapiens, HepG2, 72 h, read-out: IC50 (relative IC50). The protocol: as §2
Experiment [8] deals with HL-60. Put plainly: CellTiterGlo viability assay, initial screening. It is filed as cell-based. The note with it: Homo sapiens, HL-60, 72 h, read-out: IC50 (relative IC50). The procedure:
as §2

Experiment [9] has as its system KG-1. As to the kind of experiment: CellTiterGlo viability assay, initial screening. It is filed as cell-based. To be noted: Homo sapiens, KG-1, 72 h, read-out: IC50 (relative IC50). The protocol:
as §2

Another experiment has as its system MOLT-4. Put plainly: CellTiterGlo viability assay, initial screening. It is filed as cell-based. To be noted: Homo sapiens, MOLT-4, 72 h, read-out: IC50 (relative IC50). The procedure: as §2
A further experiment deals with CCRF-CEM. As to the kind of experiment: CellTiterGlo viability assay, initial screening. To be noted: Homo sapiens, 72 h, read-out: IC50 (relative IC50). It is filed as cell-based. The procedure:
as §2

A further experiment deals with MCF-7. As to the kind of experiment: CellTiterGlo viability assay, initial screening. It is filed as cell-based. To be noted: Homo sapiens, MCF7, 72 h, read-out: IC50 (relative IC50). The procedure:
as §2

A further experiment concerns K562 (TdT negative). As to the kind of experiment: ATP (ViaLight plus) cytotoxicity assay. It is filed as cell-based, Human. To be noted: Homo sapiens, K562, 72 h. The protocol:
(§3) Certain compounds of the invention were subjected to further studies to test the cytotoxic activity of certain compounds of the invention and also to measure their activity against 4 haematological cancer cell lines • TdT positive CEM (Human ALL) • TdT negative K562 (Human CML) • TdT negative H1-60 (Human ANLL) • RL (CRL-2261) non-HD lymphoma • The concentrations of the active metabolite dATP (Cordycepin triphosphate) in these cell lines was also measured. • The cytotoxic activity and the intracellular 3′-dATP concentrations were also studied in the presence of hENT1, Adenosine Kinase (AK) and Adenosine Deaminase pharmacological inhibitors in CEM and RL cancer cell lines. Said inhibitors that mimic known cancer resistance mechanisms. Methods Cell Culture
(§4) HL-60 (ATCC® CCL-240™), K562 (ATCC® CCL-243™), CCRF-CEM (ATCC® CRM-CCL-119™) and RL (ATCC® CRL-2261™) leukaemia cell lines, obtained from the American Type Culture Collection (ATCC), Middlesex. HL-60 and K562 cell lines are deoxynucleotidyl transferase-negative (TdT-ve), whereas CCRF-CEM cell line is TdT+ve.
(§5) HL-60, K562, CCRF-CEM and RL cell lines were cultured in RPMI-1640 medium (Sigma Aldrich, UK), which were supplemented with 10% Fetal Bovine Serum (FBS) (PAA Laboratories), 1% amphotericin B (5.5 ml) and 1% penicillin/streptomycin (5.5 ml) (PAA Laboratories) and grown in flasks at 37° C. incubator with 5% CO2.
(§6) The amount of ATP was used as a measurement of cell number and cell viability. ATP ViaLight™ plus assay kit (Lonza, USA: Product No. LT07-121) to detect ATP in cells treated in luminescence compatible 96 well plates (initial concentration of cells was 1×10^4 cells/well) with cordycepin and ProTides at concentrations of: 0, 0.1, 0.5, 1, 5 and 10 μM, followed by incubation for 72 hours at 37° C. incubator with 5% CO2. For inhibitor studies, 10 μM of NBTI or 1 μM EHNA or A-134974 was added and left for 5 minutes before adding the drugs (see section 5 for inhibitor details).
(§7) After incubation, 50 μl of cell lysis reagent was added to the 96 well plates to release the intracellular ATP, followed by 100 μl of ATP monitoring reagent (AMR). The luminescent values of each well were determined using FLUOstar OPTIMA microplate reader (BMG Labtech) which convert ATP into light by using luciferase enzyme. Therefore, the amount of luminescence produced was directly proportional to the amount of ATP.
(§8) The dose-response curves of cytotoxicity of the drugs was determined using non-linear regression analysis of percentage cell viability versus concentration and EC50 values were obtained. The intracellular assay was conducted in five replicates for each condition. Intracellular assay was determined using paired t test (two-tailed) analysis of 3′ATP/ATP concentration and p-values were obtained. For all the analysis, Prism Software program (GraphPad Software) was used and Microsoft Powerpoint® 2013 was used to plot the results.

A further experiment concerns HL-60 (TdT negative). As to the kind of experiment: ATP (ViaLight plus) cytotoxicity assay. The note with it: Homo sapiens, HL-60, 72 h. It is filed as cell-based, Human. The protocol:
as §3, §4, §5, §6, §7, §8

Experiment [10] has as its system CCRF-CEM (TdT positive CEM). Put plainly: ATP (ViaLight plus) cytotoxicity assay. To be noted: CEM (TdT+ve). It is filed as cell-based, Human. The protocol:
as §3, §4, §5, §6, §7
(§9) Cell lines were treated in the same way as described above but before treatment with drugs, a number of inhibitors were added: • 1) Nitrobenzylthioinosine (NBTI) (Sigma-Aldrich, St. Louis, Mo., product # N2255) blocks nucleoside transporters • 2) EHNA hydrochloride (Sigma-Aldrich, St. Louis, Mo., product # E114) blocks adenosine deaminase • 3) Adenosine kinase inhibitor A-134974 dihydrochloride hydrate (Sigma-Aldrich, St. Louis, Mo., product # A2846): blocks adenosine kinase
as §8

A further experiment concerns RL (CRL-2261). Put plainly: ATP (ViaLight plus) cytotoxicity assay. It is filed as cell-based. To be noted: 72 h, CRL (RL, CRL-2261). The protocol: as §3, §4, §5, §6, §7, §9, §8

In the case of `C[C@H](NP(=O)(OC[C@@H]1C[C@@H](O)[C@H](n2cnc3c(N)nc(F)nc32)O1)Oc1ccccc1)C(=O)OCc1ccccc1` (mixture of isomers) [P, (2S)-benzyl 2-(((((2S,4R,5R)-5-(6-amino-2-fluoro-9H-purin-9-yl)-4-hydroxytetrahydrofuran-2-yl)methoxy)(phenoxy)phosphoryl)amino)propanoate], the half-inhibitory concentration (IC50) in the experiment on K562 [1] (read-out: IC50 (absolute IC50)) lay within 0.1 to 5 µM; in the experiment on MCF7 (read-out: IC50 (absolute IC50)), 0.1 to 5 µM; with HepG2 [2] (read-out: IC50 (absolute IC50)) it was 5 to 15 µM; with HL-60 [3] (read-out: IC50 (absolute IC50)), 0.1 to 5 µM; with MiaPaCa-2 (read-out: IC50 (absolute IC50)), 0.1 to 5 µM; in the experiment on HT29 (read-out: IC50 (absolute IC50)) it was 5 to 15 µM. Further, the IC50 with KG-1 [4] (read-out: IC50 (absolute IC50)), in the experiment with CCRFCEM (read-out: IC50 (absolute IC50)) and in the experiment with HEL92.1.7 (read-out: IC50 (absolute IC50)) was 0.1 to 5 µM each time. For the same compound, the Emax with K562 [1] (read-out: MI %) was found to be 97%; with MCF7 (read-out: MI %), 95%; with HepG2 [2] (read-out: MI %), 74%; in the experiment on HL-60 [3] (read-out: MI %), 100%; with MiaPaCa-2 (read-out: MI %) it was 98%; with HT29 (read-out: MI %), 87%. The Emax in the experiment on KG-1 [4] (read-out: MI %) was 97%; in the experiment on CCRFCEM (read-out: MI %), 99%; in the experiment with HEL92.1.7 (read-out: MI %), 99%. In experiment [5], the “LSC targeting compared with the parent nucleoside” value is “significantly improved when compared with the parental nucleoside”.
As for `CCCCCOC(=O)[C@H](CC(C)C)NP(=O)(OC[C@@H]1C[C@@H](O)[C@H](n2cnc3c(N)ncnc32)O1)Oc1cccc2ccccc12` (mixture of isomers) [D, (2S)-pentyl 2-(((((2S,4R,5R)-5-(6-amino-9H-purin-9-yl)-4-hydroxytetrahydrofuran-2-yl)methoxy)(naphthalen-1-yloxy)phosphoryl)amino)-4-methylpentanoate], the 50% inhibitory concentration (IC50) in the experiment on K562 [6] was in the range of 5 to 15 µM; with HepG2 [7], 5 to 15 µM; with HL-60 [8] it was 5 to 15 µM; with KG-1 [9], 5 to 15 µM; in the experiment with MOLT-4, 0.1 to 5 µM; in the experiment with CCRF-CEM, 5 to 15 µM. The IC50 in the experiment on MCF-7 is 0.1 to 5 µM; in the experiment with K562 (TdT negative) it was 4.2 µM; with HL-60 (TdT negative) it was 5.4 µM; in experiment [10] (Homo sapiens, CCRF-CEM, 72 h, 72 hours), 6.1 µM; in the experiment with RL (CRL-2261), 4.8 µM. Besides, in experiment [10], the “(FD) fold difference compared to Cordycepin = Cordycepin IC50/ProTide IC50” value is “(3)”.
On to `C[C@H](NP(=O)(OC[C@@H]1C[C@@H](OP(=O)(N[C@@H](C)C(=O)OCc2ccccc2)Oc2ccccc2)[C@H](n2cnc3c(N)ncnc32)O1)Oc1ccccc1)C(=O)OCc1ccccc1` (stereo partly drawn) [H, Benzyl 2-(((((2S,4R,5R)-5-(6-amino-9H-purin-9-yl)-4-((((1-(benzyloxy)-1-oxopropan-2-yl)amino)(phenoxy)phosphoryl)oxy)tetrahydrofuran-2-yl)methoxy)(phenoxy)phosphoryl)-amino)propanoate], for which the IC50 in the experiment with K562 [6] was in the range of 15 to 100 µM; in the experiment with HepG2 [7], 5 to 15 µM; in the experiment on HL-60 [8], 15 to 100 µM; with KG-1 [9], 15 to 100 µM; in the experiment with MOLT-4 it was 15 to 100 µM; with CCRF-CEM, 15 to 100 µM. For the same compound, the IC50 with MCF-7 fell in the range of 0.1 to 5 µM.
